The text below walks through data of patent US12702697B2, “Compositions and methods for treatment of headache disorders and neuropathic pain” (Washington University, priority 2019, dated 2026).

Assay [1] concerns NTG/NO donor- or mTBI-induced cutaneous allodynia in rodents. The note with it: cited from earlier work; for persistent cephalic mechanical hypersensitivity induced by repeated isosorbide dinitrate: Dallel R, et al., Cephalalgia 2018.
For assay [2], the system named is NTG-induced skin hypersensitivity in mice. Kind of assay: Mouse model of chronic migraine (repetitive NTG): hindpaw and facial von Frey thresholds, cheek acetone test. Format: in vivo. On the procedure:
Mouse model of chronic migraine and drug treatments: After measuring baseline nociceptive responses, mice received repetitive intraperitoneal (i.p.) injections of NTG (10 mg/kg in saline with 1% propylene glycol) or vehicle (saline with 1% propylene glycol in saline, 10 mL/kg) every 2 days for 4 or more times as described previously (Pradhan A A, et al. PAIN 2014; 155:269-74). Nocifensive behaviors were measured 2 days after each injection (before the next treatment). NTG (SDM27; Copperhead Chemical, Tamaqua, PA) was freshly diluted from the stock (10% in propylene glycol, aliquoted in airtight glass vials and stored at 4° C.) with saline for every injection. Recombinant mouse IL2 (carrier-free; Biolegend, San Diego, CA) was freshly diluted from the stock (1 mg/mL aliquots at […]) every day. Each mouse received daily i.p. injection of […] IL2 in […] saline. The control mice received daily i.p. injections of […] saline. In Treg depletion experiment, mice received 1 i.p. injection of antibodies against CD25 ([…], BP0012; BioXcell, West Lebanon, NH11) or control IgG (BP0088; BioXcell). The antibody binds to CD25 on Treg cell membrane and depletes Treg cells through Fcg receptor III-mediated antibody-dependent cellular cytotoxicity and antibody-dependent cellular phagocytosis (Setiady Y Y, et al, Eur J Immunol 2010; 40:780-6). Note that on the days that the mouse behaviors were tested, NTG, IL2 and/or antibodies were always injected after completing the behavioral tests.
(§1) Responses to mechanical stimuli on the hindpaw. Mice were habituated in individual clear plexiglass boxes (11×11×15 cm) for 1 to 2 hours. A series of calibrated von Frey filaments was used to apply mechanical stimuli to the plantar surface of the hindpaws. The up-down paradigm was used to determine the 50% withdrawal threshold. The thresholds for both hindpaws were averaged to yield a single value for each mouse.
Cheek acetone test. The acute nocifensive response to acetone-evoked evaporative cooling on mouse cheek was measured as previously described (Constandil L, et al. J Pain 2012; 13:579-89). The day before testing, both cheeks were shaved (6.5×12 mm) under brief anesthesia (2% isoflurane in 100% oxygen). On the test day, mice were habituated in individual plexiglass cylinders (11-cm diameter, 15-cm height) situated in front of 3-way mirrors for 1 to 2 hours. Acetone ([…]) was applied to the shaved cheeks and immediately returned mice to the cylinders. Time spent wiping the treated area was recorded by a video camera and quantified offline. For individual mice, acetone was applied alternatingly to both cheeks at 10-minute intervals, and the duration of behavior was averaged from 4 applications.
Withdrawal responses to facial mechanical stimuli. The hair on mouse forehead (above and between 2 eyes) was shaved the day before testing. On the test day, the experimenter gently held the mouse on the palm with minimal restraint and applied the calibrated von Frey filament perpendicularly to the shaved skin, causing the filament to bend for 5 seconds. A positive response was determined by the following criteria as previously described: mouse vigorously stroked its face with the forepaw, head withdrawal from the stimulus, or head shaking (Elliott M B et al., Headache 2012; 52:966-84). The up-down paradigm was used to determine the 50% withdrawal threshold. […]

The subject of assay [3] is Treg cells and CD3+ T cells in dura, TG and DRG. Kind of assay: Immunohistochemistry of CD3+ T cells and EGFP+ Treg cells in dura, TG, DRG and cervical/medullary dorsal horn. In kind it is in vivo, mouse. On the procedure: Tissue preparation, immunohistochemistry, and image analysis. Mice were euthanized with i.p. injection of barbiturate (200 mg/kg) and were transcardially perfused with warm 0.1 M phosphate buffered saline (pH 7.2) followed by cold 4% formaldehyde in 0.1 M phosphate buffer (pH 7.2) for fixation. Trigeminal ganglia, lumbar L4 DRG, and the tissues containing the cervical/medullary dorsal horn (from obex to C3 cervical spinal cord) were collected and sectioned at […] in the transverse plane, collected on Superfrost Plus glass slides in sequence and stored at […]
The dura was carefully dissected from the skull using forceps and stained as whole mount. T cells were identified by the rat anti-CD3 antibody (clone 17A2, 1:200; eBioscience, San Diego, CA), and Treg cells were identified with the chicken anti-EGFP (1:1000; AVES Lab, Tigard, OR) antibody in tissues from DEREG mice. […] To quantify CD31 T cells and Treg cells on the dura, we took random, nonoverlapping images (10 per mouse) in areas adjacent to the middle meningeal artery (MMA). To quantify T cells and Treg cells in TG, DRG, and cervical/medullary dorsal horn, all cells on individual sections were counted, and the number was multiplied by 4 to obtain the total number of cells per ganglion in each mouse. […] Representative images were adjusted for contrast and brightness using the same parameter within individual experiments. No other manipulations were made to the images. Image analysis was performed with experimenters blinded to the experimental groups.

Assay [4] deals with nerve injury-induced punctate and dynamic allodynia. The note with it: cited from earlier work.
The subject of assay [5] is sumatriptan-induced cutaneous hypersensitivity in mice. Nature of the assay: Mouse model of medication overuse headache (repeated sumatriptan). Format: in vivo. The note with it: daily sumatriptan 0.6 mg/kg i.p.; male and female C57BL/6J. On the procedure:
Mouse model of medication overuse headache. After measuring baseline nociceptive responses, mice received daily i.p. injections of sumatriptan succinate (0.6 mg/kg; Fresenius Kabi, Lake Zurich, IL44). Daily ld-IL2 or saline were administered after mice received 2 sumatriptan injections. Facial and hindpaw mechanical thresholds were measured every 2 days. Note that on the days that the mouse behaviors were tested, sumatriptan and/or IL2 were always injected after completing the behavioral tests.
as §1
Withdrawal responses to facial mechanical stimuli. The hair on mouse forehead (above and between 2 eyes) was shaved the day before testing. On the test day, the experimenter gently held the mouse on the palm with minimal restraint and applied the calibrated von Frey filament perpendicularly to the shaved skin, causing the filament to bend for 5 seconds. A positive response was determined by the following criteria as previously described: mouse vigorously stroked its face with the forepaw, head withdrawal from the stimulus, or head shaking (Elliott M B et al., Headache 2012; 52:966-84). The up-down paradigm was used to determine the 50% withdrawal threshold.

Regarding `CC1(C)O[C@@H]2[C@@H](CO[C@@]3(COS(N)(=O)=O)OC(C)(C)O[C@@H]23)O1` [topiramate], the “NTG-enhanced behavioral responses to acetone-induced cooling of facial skin” value in assay [1] (daily treatment, mice) is recorded as “can be blocked”.

Take `O=[N+]([O-])OCC(CO[N+](=O)[O-])O[N+](=O)[O-]` [NTG, nitroglycerin, reference compound]: the “mechanical threshold at the periorbital region” value in assay [2] (2 days after the first NTG injection, female Swiss Webster) was “substantially reduced”. Also, the “50% withdrawal thresholds to von Frey filaments on the hindpaws” value in assay [2] (NTG 10 mg/kg i.p. every 2 days for 5 times, male and female C57BL/6J) was “induced a progressive and sustained mechanical hypersensitivity”. The “facial mechanical threshold 3 hours after systemic NTG” value in assay [2] (NTG 10 mg/kg i.p., naive C57BL/6J, day 1) is on record as “significantly reduced”. The “time facial mechanical hypersensitivity was sustained by repeated NTG injections” value in assay [2] (male C57BL/6J) is “at least 4 weeks”. For the same molecule, the “duration of acetone-induced cheek wiping” value is listed as “persistent increase” in assay [2] (repeated NTG, female C57BL/6J) and “gradual increase” in assay [2] (repetitive NTG, female Swiss Webster). The “increase in total CD3+ cells in TG” value in assay [3] (repeated NTG) was 2 fold. Also, the “proportion of Treg cells among total T cells in TG” value in assay [3] (repeated NTG administration) is “significantly reduced”. Moreover, in assay [3] (repeated NTG, C57BL/6J), the “density of CD3+ T cells in the dura surrounding the MMA or in L4 DRG” value is given as “not altered”. Moreover, the “CD3+ cells per TG” value in assay [3] (repeated NTG, female C57BL/6J, n=6) was 4135±562 cells per TG. Also, in assay [3] (repeated injections of NTG), the “reduction of the ratio of Treg cells among CD3+ T cells in mouse TG” value is on record as 50%. Also, the “total number of EGFP+ Treg cells in TG and DRG” value in assay [3] (repetitive NTG injections, female DEREG mice) is recorded as “neither was significantly altered”.

Turning to `CN1CC[C@]23c4c5ccc(O)c4O[C@H]2[C@@H](O)C=C[C@H]3[C@H]1C5` [morphine], in assay [4] (<2 weeks post-injury), the “nerve injury-induced punctate allodynia, early stage” value is recorded as “attenuates”. Further, the “nerve injury-induced dynamic allodynia” value in assay [4] (all stages) is given as “does not respond”. In assay [4] (late stage), the “nerve injury-induced punctate allodynia, late stage” value was “not late stage”.

As to `NCCCC[C@H](NC(=O)[C@@H](Cc1cc(Br)c(O)c(Br)c1)NC(=O)N1CCC(N2Cc3ccccc3NC2=O)CC1)C(=O)N1CCN(c2ccncc2)CC1` [olcegepant], the “persistent cephalic mechanical hypersensitivity induced by repeated isosorbide dinitrate” value in assay [1] is on record as “neither sumatriptan nor CGRP receptor antagonist olcegepant prevents”.

Consider `CNS(=O)(=O)Cc1ccc2[nH]cc(CCN(C)C)c2c1` [sumatriptan, sumatriptan succinate], for which the “facial and hindpaw mechanical sensitivity” value in assay [5] was “persistent facial and hindpaw mechanical hypersensitivity”. For the same molecule, the “persistent cephalic mechanical hypersensitivity induced by repeated isosorbide dinitrate” value in assay [1] is recorded as “neither sumatriptan nor CGRP receptor antagonist olcegepant prevents”. Moreover, the “NTG-induced acute cutaneous allodynia and central sensitization” value in assay [1] (rodents) is “can be blocked”.

For the molecule `CC(C)NCC(O)COc1cccc2ccccc12` (stereo not drawn) [propranolol], the “persistent facial mechanical hypersensitivity from repeated enhancing of NO signaling” value in assay [1] (previous studies) is reported as “can be blocked”.
